The values below come from patent publication US10577356B2, “Beta-arrestin-biased cannabinoid CB1 receptor agonists and methods for making and using them” (priority 2014, dated 2020).

In assay [1] the target is T1, CB1 (Homo sapiens, UniProt P21554). The assay can be described thus: Antagonism of CP55,940's [35S]GTPγS signaling / allosteric modulation of CB1 (FIG. 3). In kind it is biochemical. The settings on record: compared with ORG27569. On the procedure: (§1) Compounds were tested using a GTPγS assay as previously described (Shore D M, et al. J Biol Chem. 2014; 289(9):5828-45; incorporated herein by reference in its entirety). Compounds were tested using an ERK assay as previously described (Kapur A, et al. J Biol Chem. 2009; 284:29817-29827; incorporated herein by reference in its entirety).
On the technique in general: GTPγS resists hydrolysis and so accumulates on activated G proteins.
Target sequence in this assay (P21554 whole entry, species assumed): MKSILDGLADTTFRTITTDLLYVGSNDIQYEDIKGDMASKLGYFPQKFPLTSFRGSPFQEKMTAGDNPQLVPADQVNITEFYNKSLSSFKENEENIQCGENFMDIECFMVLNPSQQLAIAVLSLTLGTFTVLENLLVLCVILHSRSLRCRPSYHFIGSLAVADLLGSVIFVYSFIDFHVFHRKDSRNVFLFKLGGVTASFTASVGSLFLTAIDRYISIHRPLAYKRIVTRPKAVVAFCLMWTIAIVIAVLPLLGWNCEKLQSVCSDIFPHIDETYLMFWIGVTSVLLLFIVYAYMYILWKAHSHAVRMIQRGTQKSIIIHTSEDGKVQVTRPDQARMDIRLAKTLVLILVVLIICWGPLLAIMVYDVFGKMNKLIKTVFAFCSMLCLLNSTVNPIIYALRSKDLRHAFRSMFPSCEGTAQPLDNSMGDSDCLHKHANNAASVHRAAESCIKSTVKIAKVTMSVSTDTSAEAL

The target in assay [2] is T1, CB1. The assay can be described thus: Effect on CP55,940 binding (Bmax) at CB1 (FIG. 3). As to conditions: compared with ORG27569.
Target sequence in this assay (P21554 whole entry, species assumed): as above
Assay [3] concerns the target T2, CB1 (Mus musculus, UniProt P47746).
T2 construct: from tissue
The assay is described as follows: Basal G protein signaling, GTP-gamma-S binding, compound applied alone, membranes (FIG. 4-7). The assay is classed as biochemical. On the procedure:
as §1

Assay [4] addresses T1, CB1. The assay is described as follows: GTPγS stimulation levels in hCB1/HEK cells (FIG. 9). As to conditions: compound applied alone. The assay is classed as biochemical. Also on record: expressed in transfected cells; host or cells: HEK cells (hCB1/HEK). On the procedure:
as §1
Target sequence in this assay (P21554 whole entry): as the sequence (P21554 whole entry, species assumed) above

The target of assay [5] is T1, CB1. The assay is described as follows: ERK assay, pERK production in cells (FIG. 8, FIG. 10). The settings on record: compound applied alone. The assay is classed as cell-based. Here is the method:
as §1
Target sequence in this assay (P21554 whole entry, species assumed): as above

“Also recorded” adds a separate entry of the source.

T2 sequence (P47746 whole entry): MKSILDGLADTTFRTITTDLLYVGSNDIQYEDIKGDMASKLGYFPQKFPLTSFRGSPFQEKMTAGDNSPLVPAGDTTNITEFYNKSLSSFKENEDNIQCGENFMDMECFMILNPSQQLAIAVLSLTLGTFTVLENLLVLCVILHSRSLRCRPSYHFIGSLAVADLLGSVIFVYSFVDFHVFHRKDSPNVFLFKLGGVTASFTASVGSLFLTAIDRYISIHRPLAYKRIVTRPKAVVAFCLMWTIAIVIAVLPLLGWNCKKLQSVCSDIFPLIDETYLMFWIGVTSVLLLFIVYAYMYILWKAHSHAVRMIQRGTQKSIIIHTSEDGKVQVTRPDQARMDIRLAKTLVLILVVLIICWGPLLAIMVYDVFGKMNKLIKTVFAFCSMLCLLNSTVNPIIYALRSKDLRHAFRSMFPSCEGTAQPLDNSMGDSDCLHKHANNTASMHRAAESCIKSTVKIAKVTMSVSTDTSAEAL

In the case of `CCc1c(C(=O)NC[C@@H](O)c2ccc(N3CCCCC3)cc2)[nH]c2ccc(Cl)cc12` [Compound 1, 5-Chloro-3-ethyl-N-[(2S)-2-hydroxy-2-[4-(piperidin-1-yl)phenyl]ethyl]-1H-indole-2-carboxamide], at CB1 [1], the “allosteric modulation of CB1 (effects on binding and G protein-mediated signaling)” value (shortened to “allosteric modulation of CB1”) is “less potent and efficacious negative allosteric modulator of CB1 than ORG27569”; the “antagonism of CP55,940's [35S]GTPλS signaling” value (from here on “antagonism of CP55,940's”) was “does not antagonize CP55,940's [^35S]GTPλS signaling as well as ORG27569”. Also, the “effect on CP55,940's Bmax” value on CB1 [2] is “does not improve CP55,940's Bmax as well as ORG27569”. Moreover, the “effect on basal G protein signaling (GTP-gamma-S binding)” value (shortened to “effect on basal G protein signaling”) on CB1 [3] was “no effect on GTP-gamma-S binding; also recorded: does not act as an inverse agonist of [^35S]GTPλS signaling”.
Consider `CCCCCCC(C)(C)c1ccc([C@@H]2C[C@H](O)CC[C@H]2CCCO)c(O)c1` [CP55940, reference compound], for which the “GTP-gamma-S binding at the human CB1 receptor” value at CB1 [4] is listed as “causes a rise in GTP-gamma-S binding”.
On to `CCc1c(C(=O)NCCc2ccc(N3CCCCC3)cc2)[nH]c2ccc(Cl)cc12` [ORG27569, reference compound], for which the “GTP-gamma-S binding at the human CB1 receptor” value at CB1 [4] is “causes a decrease (including below basal)”.
With `CCc1c(C(=O)NCCc2ccc(N3CCCCC3)cc2C2CC2)[nH]c2ccc(Cl)cc12` [Compound 3, 5-Chloro-N-{2-[2-cyclopropyl-4-(piperidin-1-yl)phenyl]ethyl}-3-ethyl-1H-indole-2-carboxamide], the “allosteric modulation of CB1” value on CB1 [1] is “does not act as an allosteric modulator of CB1”. Besides, the “effect on CP55,940's Bmax” value at CB1 [2] was “does not improve CP55,940's Bmax (and may actually reduce it)”. On CB1 [4], the “GTP-gamma-S binding at the human CB1 receptor” value is “no effect on GTP-gamma-S binding; also recorded: did not have any significant effect on [^35S]GTPλS signaling when applied alone”. At CB1 [5], the “ERK signaling / pERK production” value is “robust effect, particularly at early time points, compared to CP (CP55,940); also recorded: does generate an ERK signal”. In addition, the “effect on basal G protein signaling” value at CB1 [3] is reported as “no effect on GTP-gamma-S binding”.
As to `CCc1c(C(=O)NC[C@H](O)c2ccc(N3CCCCC3)cc2)[nH]c2ccc(Cl)cc12` [Compound 2, 5-Chloro-3-ethyl-N-[(2R)-2-hydroxy-2-[4-(piperidin-1-yl)phenyl]ethyl]-1H-indole-2-carboxamide], at CB1 [1], the “allosteric modulation of CB1” value was “more potent negative allosteric modulator than ORG27569”; the “antagonism of CP55,940's” value was “antagonizes CP55,940's [^35S]GTPλS signaling as well as ORG27569”. Also, at CB1 [2], the “effect on CP55,940's Bmax” value is “improves CP55,940's Bmax better than as ORG27569”. Moreover, the “effect on basal G protein signaling” value on CB1 [3] is “partial agonist in membranes; also recorded: does not act as an inverse agonist of [^35S]GTPλS signaling; also recorded: may act as a weak agonist of G protein-mediated signaling”.
For the compound `O=C(NCCc1ccc(N2CCCCC2)cc1)c1[nH]c2ccc(Cl)cc2c1Cc1ccccc1` [Compound 4, 3-Benzyl-5-chloro-N-{2-[4-(piperidin-1-yl)phenyl]ethyl}-1H-indole-2-carboxamide], the “antagonism of CP55,940's” value at CB1 [1] is “antagonized CP55,940's [^35S]GTPλS signaling as well as ORG27569”. For the same compound, on CB1 [2], the “effect on CP55,940's Bmax” value was “did not affect CP55,940's Bmax”. Moreover, the “ERK signaling / pERK production” value at CB1 [5] is “may act as a weak inverse agonist of ERK signaling”. At CB1 [3], the “effect on basal G protein signaling” value is “no effect on GTP-gamma-S binding; also recorded: does not act as an inverse agonist of [^35S]GTPλS signaling”.
